Test results taken from ChEMBL document CHEMBL1127914, “Pseudopeptide inhibitors of aminopeptidases containing the [CH(CN)NH] surrogate as a transition-state MIMIC” (Bioorg Med Chem Lett, 1994).
Residues, ends and D or L forms follow the SMILES beside them.

Key:
Aminopeptidase B [1] = biological target: T1, Aminopeptidase B (Mus musculus, UniProt Q8VCT3); assay: Inhibition of Aminopeptidase B in murine L-cells by Aoyagi method.
T1 sequence (Q8VCT3 whole entry): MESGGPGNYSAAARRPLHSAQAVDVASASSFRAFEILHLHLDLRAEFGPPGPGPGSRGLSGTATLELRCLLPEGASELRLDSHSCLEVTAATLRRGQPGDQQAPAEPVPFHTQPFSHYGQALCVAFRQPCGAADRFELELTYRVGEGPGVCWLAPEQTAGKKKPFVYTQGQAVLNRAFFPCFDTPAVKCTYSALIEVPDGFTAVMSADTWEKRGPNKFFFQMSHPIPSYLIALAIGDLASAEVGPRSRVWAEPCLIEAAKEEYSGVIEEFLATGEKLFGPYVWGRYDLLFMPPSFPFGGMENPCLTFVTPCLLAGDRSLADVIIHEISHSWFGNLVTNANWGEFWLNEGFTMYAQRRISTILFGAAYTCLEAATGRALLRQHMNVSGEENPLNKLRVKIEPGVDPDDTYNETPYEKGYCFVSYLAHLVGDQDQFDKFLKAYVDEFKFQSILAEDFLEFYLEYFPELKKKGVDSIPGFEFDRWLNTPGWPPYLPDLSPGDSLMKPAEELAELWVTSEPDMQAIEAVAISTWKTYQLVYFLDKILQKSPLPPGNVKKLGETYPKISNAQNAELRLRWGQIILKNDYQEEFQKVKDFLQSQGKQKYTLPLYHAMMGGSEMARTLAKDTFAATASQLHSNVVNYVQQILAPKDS

Aminopeptidase N [2] = biological target: T2, Aminopeptidase N (Homo sapiens, UniProt P15144); assay: Inhibition of Aminopeptidase M.
Aminopeptidase B [3] = biological target: T1, Aminopeptidase B; assay: Concentration required for inhibitory potency against Aminopeptidase B in murine L-cells by aoyagi method using L-lysine-2-naphthylamide hydrochloride as substrate (0.5mM, Km=0.9*10e-4 M)
Aminopeptidase N [4] = biological target: T2, Aminopeptidase N; assay: Concentration required for inhibitory potency on Aminopeptidase M using L-leucine-2-naphthylamide hydrochloride as substrate(0.5 mM, Km=0.6*10e-4 M)

T2 sequence (P15144 whole entry): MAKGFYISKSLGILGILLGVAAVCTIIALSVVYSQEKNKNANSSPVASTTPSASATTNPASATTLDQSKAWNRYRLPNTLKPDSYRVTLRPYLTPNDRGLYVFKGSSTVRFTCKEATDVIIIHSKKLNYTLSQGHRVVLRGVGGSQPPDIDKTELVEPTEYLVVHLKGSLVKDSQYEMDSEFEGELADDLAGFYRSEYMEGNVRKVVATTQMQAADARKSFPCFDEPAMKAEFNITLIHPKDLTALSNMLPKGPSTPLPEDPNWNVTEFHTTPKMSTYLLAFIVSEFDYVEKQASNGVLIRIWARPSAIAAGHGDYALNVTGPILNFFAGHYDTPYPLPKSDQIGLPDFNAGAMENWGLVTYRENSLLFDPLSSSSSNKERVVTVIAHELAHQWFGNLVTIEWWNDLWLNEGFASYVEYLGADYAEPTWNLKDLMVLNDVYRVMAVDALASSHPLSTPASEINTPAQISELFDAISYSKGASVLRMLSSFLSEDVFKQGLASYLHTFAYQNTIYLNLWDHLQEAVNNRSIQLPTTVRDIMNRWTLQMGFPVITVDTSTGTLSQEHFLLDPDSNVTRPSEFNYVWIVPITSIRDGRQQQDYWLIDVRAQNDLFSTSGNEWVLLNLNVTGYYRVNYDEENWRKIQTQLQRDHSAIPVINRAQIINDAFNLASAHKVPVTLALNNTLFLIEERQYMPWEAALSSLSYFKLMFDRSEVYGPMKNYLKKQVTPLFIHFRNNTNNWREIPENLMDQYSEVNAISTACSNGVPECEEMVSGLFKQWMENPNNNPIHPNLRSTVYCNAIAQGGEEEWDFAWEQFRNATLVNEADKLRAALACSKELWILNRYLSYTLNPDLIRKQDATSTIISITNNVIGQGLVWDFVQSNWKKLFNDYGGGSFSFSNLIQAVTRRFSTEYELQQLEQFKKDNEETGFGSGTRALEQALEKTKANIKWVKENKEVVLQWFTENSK

| Compound | IC50 (Aminopeptidase B [1]) | IC50 (Aminopeptidase N [2]) | IC50 (Aminopeptidase B [3]) | IC50 (Aminopeptidase N [4]) |
| --- | --- | --- | --- | --- |
| COC(=O)[C@@H](NC(C#N)[C@H](Cc1ccccc1)NC(=O)OC(C)(C)C)C(C)C (some centres not stated) | 1000 µM | 1000 µM | – | – |
| CC(C)C[C@H](NC(=O)[C@@H](N)Cc1ccccc1)C(=O)O (H-Phe-Leu-OH) | 1000 µM | 1000 µM | – | – |
| COC(=O)[C@H](CC(C)C)NC(C#N)[C@H](Cc1ccccc1)NC(=O)OC(C)(C)C (mixture of isomers) | 1000 µM | 1000 µM | – | – |
| COC(=O)[C@H](CCCCN)NC(C#N)[C@H](Cc1ccccc1)NC(=O)OC(C)(C)C (mixture of isomers) | 1000 µM | 1000 µM | – | – |
| COC(=O)C1CCCN1C(=O)[C@H](CC(C)C)NC(C(N)=O)[C@@H](N)Cc1ccccc1 (single isomer, unassigned) [listing 1 of 2 here] | 1000 µM | 1000 µM | – | – |
| COC(=O)C1CCCN1C(=O)[C@H](CC(C)C)NC(C(N)=O)[C@@H](N)Cc1ccccc1 (single isomer, unassigned) [listing 2 of 2 here] | – | – | 1000 µM | 783 µM |
| COC(=O)[C@H](CC(C)C)NC(C(N)=O)[C@@H](N)Cc1ccccc1 (single isomer, unassigned) | 1000 µM | 1000 µM | – | – |
| COC(=O)C1CCCN1C(=O)[C@H](CC(C)C)NC(C#N)[C@H](Cc1ccccc1)NC(=O)OC(C)(C)C (single isomer, unassigned; form 1) | 1000 µM | 1000 µM | – | – |
| COC(=O)[C@H](Cc1ccccc1)NC(C#N)[C@H](Cc1ccccc1)NC(=O)OC(C)(C)C (single isomer, unassigned; form 1) | 1000 µM | 1000 µM | – | – |
| COC(=O)C1CCCN1C(=O)[C@H](CC(C)C)NC(C#N)[C@H](Cc1ccccc1)NC(=O)OC(C)(C)C (single isomer, unassigned; form 2) | 1000 µM | 1000 µM | – | – |
| COC(=O)[C@H](Cc1ccccc1)NC(C#N)[C@H](Cc1ccccc1)NC(=O)OC(C)(C)C (single isomer, unassigned; form 2) | 1000 µM | 1000 µM | – | – |

The remaining compounds from weak to strong by IC50 (Aminopeptidase B [1]), led by results:

| IC50 (Aminopeptidase B [1]) | IC50 (Aminopeptidase N [2]) | IC50 (Aminopeptidase B [3]) | IC50 (Aminopeptidase N [4]) | Compound |
| --- | --- | --- | --- | --- |
| 824 µM | 793 µM | – | – | COC(=O)[C@@H]1CCCN1C(=O)[C@H](CC(C)C)NC(=O)[C@@H](N)Cc1ccccc1 (H-Phe-Leu-Pro-OMe) |
| 293 µM | – | – | – | COC(=O)[C@H](Cc1ccccc1)N[C@H](C#N)[C@@H](N)Cc1ccccc1 |
| 221 µM | – | – | – | COC(=O)[C@H](Cc1ccccc1)N[C@@H](C#N)[C@@H](N)Cc1ccccc1 |
| 50 µM | – | – | – | COC(=O)[C@H](CC(C)C)NC(C#N)[C@@H](N)Cc1ccccc1 (some centres not stated) |
| 44 µM | – | – | – | COC(=O)[C@H](CCCCN)NC(C#N)[C@@H](N)Cc1ccccc1 (some centres not stated) |
| 36 µM | – | – | – | COC(=O)[C@@H](NC(C#N)[C@@H](N)Cc1ccccc1)C(C)C (some centres not stated) |
| 28 µM | – | – | – | COC(=O)[C@@H]1CCCN1C(=O)[C@H](CC(C)C)N[C@@H](C#N)[C@@H](N)Cc1ccccc1 |
| 14 µM | – | – | – | COC(=O)C1CCCN1C(=O)[C@H](CC(C)C)NC(C#N)[C@@H](N)Cc1ccccc1 (single isomer, unassigned) |
| 6 µM | – | – | – | CC(C)C[C@H](NC(=O)[C@@H](O)[C@H](N)Cc1ccccc1)C(=O)O [UBENIMEX] |
